Measured values: patent US8436021B2, “Pharmaceutical composition for treating and/or preventing a pathology associated with an obsessional behavior or with obesity” (priority 2002, dated 2013)

What was measured:
Type in all cases: in vivo, mouse
[1] = system: 5-HT4 receptor; test: Ingestion of food after 24 h food deprivation and i.p. drug injection (protocol of Lucas et al., 1998); conditions: for diminution of ingestion of food vs NaCl-treated mice of same genotype / effect on ingestion of food vs NaCl-treated mice of same genotype: MDMA 10 mg/kg, RS 39604 0.5 mg/kg i.p.; for effect on ingestion of food vs NaCl-treated mice of same genotype: 3 h after administration
Protocol: Each drug used to treat the wild mice disabled for the gene coding for the 5-HT4 receptor was diluted extemporaneously in a saline solution of NaCl (0.9%) and injected in a systemic manner (i.p.). The injection volume of each treatment was 200 μL for 30 g. The wild mice or those disabled for the 5-HT4 receptor (n=35) received the following treatments: NaCl, MDMA (or ecstasy or 3,4-N-methylene dioxymethamphetamine, SIGMA, 10 mg/kg), RS 39604, […]/MDMA.
(§1) The MDMA (10 mg/kg, Sigma, user license 9900431 S, V. Compan) and RS 39604 (0.5 mg/kg), antagonist of the 5-HT4 receptor, were administered by themselves or in a combined treatment to the wild mice or those deprived of the 5-HT4 receptor (n=12-17 by genotype and pharmacological products).
Ingestion of food by the wild mice and the mice disabled for the gene coding for the 5-HT4 receptor was evaluated in accordance with the test protocol described by Lucas et al., 1998. The different mice were isolated for a habituation period of three days in the presence of food and water supplied ad libitum during which the weights of the mice and of the food consumed were measured daily at the same hour. On the fourth day the mice were deprived of their food for 24 hours. The drugs were injected such as NaCl after the food deprivation period to determine the effect of the different treatments on ingestion of food. Food was reintroduced into each cage after an interval of 10 min for the other treatments. Three successive weighings of the food were then carried out 30 min, 1 h and 3 h after the reintroduction of the food.

[2] = system: 5-HT4 receptor; test: Constraint stress (forced immobilization 110 min): ingestion of food and weight; conditions: RS 39604 1 mg/kg, not shown
Protocol: Each of the tests was divided into three phases: A period of habituation (7 days), the day of the constraint stress (immobilization for 110 min) and a recovery stage (10 days). The mice were divided into a control group and a constraint group. On the stress day the wild mice disabled for the gene coding for the 5-HT4 receptor received an injection of NaCl […], 1 mg/kg of RS 39604, antagonist of the 5-HT4 receptor. […] Ingestion of food was then measured 2 h 30 min, 3 and 5 h and each day during the recovery period.

[3] = system: 5-HT4 receptor; test: Taking of food in mice nourished ad libitum (dose selection for RS 39604); conditions: 0.5 mg/kg, not illustrated
Protocol: as §1

[4] = system: leptine; test: Plasma leptine rates after administration of NaCl or MDMA; conditions: single administration MDMA 10 mg/kg, wild or mutant mice; p=0.95
Protocol: The data represents the average±the standard deviation from the average of the leptine rates of the plasma expressed in ng/mL after the administration of NaCl (0.9%) or of MDMA (10 mg/kg) in the wild (+/+) or the disabled (−/−) mice for the gene coding for the 5-HT4 receptor, aged six to 10 months on the average. **p<0.01 significant effect of the genotype after a variance analysis (ANOVA) followed by an F test of Scheffé.

## COc1cc(COc2cc(N)c(Cl)cc2C(=O)CCC2CCN(CCNS(C)(=O)=O)CC2)cc(OC)c1 [RS 39604]
[1]; RS 39604 0.5 mg/kg i.p. alone, wild and mutant mice, 24 h food deprivation
  effect of treatment alone on ingestion of food (statistical analysis of genotype, treatment, interaction): does not reveal significant
[2]; wild female mice
  ingestion of food after constraint stress preceded by injection: not modified
[2]; wild mice
  weight losses after constraint stress vs NaCl-treated animals: reduced the weight losses
[3]; mutant animals for the 5-HT4 receptors
  taking of food vs mice treated with NaCl or other dosages: without effect
[3]; nourished wild mice ad libitum
  taking of food vs mice treated with NaCl or other dosages: increase of the taking of food

## CNC(C)Cc1ccc2c(c1)OCO2 (stereo not drawn) [MDMA, 3,4-N-methylene dioxymethamphetamine]
[1]; mice lacking the 5-HT4 receptor (−/−), 30 min after administration
  diminution of ingestion of food vs NaCl-treated mice of same genotype: −69.07%
[1]; mice lacking the 5-HT4 receptor (−/−), 1 h after administration
  diminution of ingestion of food vs NaCl-treated mice of same genotype: −68.49%
[1]; mice lacking the 5-HT4 receptor (−/−)
  effect on ingestion of food vs NaCl-treated mice of same genotype: no longer observed
[1]; wild mice (+/+), 30 min after administration, 24 h food deprivation
  diminution of ingestion of food vs NaCl-treated mice of same genotype: −95.38%
[1]; wild mice (+/+), 1 h after administration, 24 h food deprivation
  diminution of ingestion of food vs NaCl-treated mice of same genotype: −88.56%
[1]; wild mice (+/+), 24 h food deprivation
  effect on ingestion of food vs NaCl-treated mice of same genotype: absent
[4]
  rates of leptine in plasma: does not modify the rates of leptine
